# From patent publication US9249453B2, “Method for identifying a malodor inhibitor” (Kao Corporation, priority 2011, dated 2016)
# What was measured:
# Assay type in all cases: cell-based
# OR2W1 = molecular target: T1, OR2W1 (Homo sapiens, UniProt Q9Y3N9); experiment: Luciferase reporter assay: suppression of the skatole response of OR2W1 expressed in HEK293 cells; conditions: test substance 100 μM mixed with 300 μM skatole, HEK293 cells expressing OR2W1; for inhibition at 100 µM: 4 h, read-out: Inhibition rate 2W1
# T1 construct: expressed in transfected cells; host or cells: HEK293
# T1 sequence (Q9Y3N9 1-320): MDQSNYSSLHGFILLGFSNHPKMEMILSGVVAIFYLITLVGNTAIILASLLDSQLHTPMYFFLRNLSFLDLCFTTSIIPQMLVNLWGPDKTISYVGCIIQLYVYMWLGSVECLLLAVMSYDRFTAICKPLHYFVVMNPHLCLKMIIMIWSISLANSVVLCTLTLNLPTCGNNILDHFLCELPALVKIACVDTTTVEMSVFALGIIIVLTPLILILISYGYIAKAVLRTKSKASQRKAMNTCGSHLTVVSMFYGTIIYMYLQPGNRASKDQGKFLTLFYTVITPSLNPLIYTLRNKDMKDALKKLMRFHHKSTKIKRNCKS
# Experimental: (§1) A reaction solution having a composition shown in Table 1 was prepared on a clean bench, and left to stand for 15 minutes. The solution was dispensed to each well of a 96-well plate (BD). Subsequently, HEK293 cells (100 μL, 3×10^5 cells/cm^2) were seeded in each well and cultured for 24 hours in an incubator at 37° C. and under 5% CO2 conditions.
# (§2) The olfactory receptor expressed in HEK293 cells activates adenylate cyclase with the aid of Gαs present in cells, to thereby increase intracellular cAMP level. In this study, odorant response was measured by a luciferase reporter gene assay which monitored the intracellular cAMP level as the luminescence value derived from a firefly luciferase gene (fluc2P-CRE-hygro). Also, a Renilla luciferase gene fused downstream of a CMV promoter (hRluc-CMV) was also transfected to HEK293 cells as an internal standard to correct errors in gene transfer efficiency and number of cells.
# (§3) Cell culturing was performed for four hours in a CO2-incubator, whereby the luciferase gene sufficiently expressed in the cells. Luciferase activity was measured by means of a Dual-Glo™ luciferase assay system (promega) according to an instruction manual thereof. The luminescence value derived from firefly luciferase induced by odorant stimulation was divided by the luminescence value of cells which were not stimulated with odorants. The thus-obtained—called “fold increase”—was employed as an index for response intensity.
# (§4) The response inhibition rate of a test substance was calculated as follows. Firstly, luminescence value derived from firefly luciferase induced by stimulation with skatole (X), and luminescence value in cells which expressed the same receptor but were not stimulated with skatole (Y) were determined. By subtracting Y from X, the receptor activity by stimulation with skatole alone (X−Y) was determined. Similarly, the luminescence value induced by stimulation with a mixture of skatole and a test substance (Z) was determined. Through subtracting Y (the luminescence value in cells which expressed the same receptor but were not stimulated with skatole) from Z, the receptor activity (Z−Y) by stimulation with a mixture of skatole and the test substance was obtained. From the thus-obtained receptor activity by stimulation with skatole alone (X−Y) and the receptor activity in the presence of a test material (Z−Y), the response inhibition rate of the test substance was calculated by the following equation: Inhibition rate (%)={1−(Z−Y)/(X−Y)}×100.
# (§5) In each case, multiple independent experiments were performed in duplicate, and the average of each experiment was used.
# OR5K1 = molecular target: T2, OR5K1 (Homo sapiens, UniProt Q8NHB7); experiment: Luciferase reporter assay: suppression of the skatole response of OR5K1 expressed in HEK293 cells; conditions: test substance 100 μM mixed with 300 μM skatole, HEK293 cells expressing OR5K1; for inhibition at 100 µM: 4 h, read-out: Inhibition rate 5K1
# T2 construct: expressed in transfected cells; host or cells: HEK293
# T2 sequence (Q8NHB7 1-308): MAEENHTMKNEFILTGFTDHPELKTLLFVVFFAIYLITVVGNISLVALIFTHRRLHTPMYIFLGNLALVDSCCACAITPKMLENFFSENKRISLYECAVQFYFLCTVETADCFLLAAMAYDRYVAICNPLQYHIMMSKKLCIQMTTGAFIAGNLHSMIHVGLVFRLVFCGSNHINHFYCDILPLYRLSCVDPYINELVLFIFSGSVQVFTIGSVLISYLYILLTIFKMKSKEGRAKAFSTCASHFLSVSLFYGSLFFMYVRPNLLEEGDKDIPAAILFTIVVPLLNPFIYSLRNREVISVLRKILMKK
# Experimental: as §1, §2, §3, §4, §5
# OR5P3 = molecular target: T3, OR5P3 (Homo sapiens, UniProt Q8WZ94); experiment: Luciferase reporter assay: suppression of the skatole response of OR5P3 expressed in HEK293 cells; conditions: test substance 100 μM mixed with 300 μM skatole, HEK293 cells expressing OR5P3
# T3 construct: expressed in transfected cells; host or cells: HEK293
# T3 sequence (Q8WZ94 1-311): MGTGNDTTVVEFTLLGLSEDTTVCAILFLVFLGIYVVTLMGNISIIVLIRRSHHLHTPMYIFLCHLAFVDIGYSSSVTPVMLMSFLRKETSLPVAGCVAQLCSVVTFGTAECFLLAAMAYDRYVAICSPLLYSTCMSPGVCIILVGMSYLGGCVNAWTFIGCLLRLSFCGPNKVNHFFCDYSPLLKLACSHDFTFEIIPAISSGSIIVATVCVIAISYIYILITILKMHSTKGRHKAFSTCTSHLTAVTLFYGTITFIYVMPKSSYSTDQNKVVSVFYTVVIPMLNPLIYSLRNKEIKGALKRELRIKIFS
# Experimental: as §1, §2, §3, §4, §5
# OR8H1 = molecular target: T4, OR8H1 (Homo sapiens, UniProt Q8NGG4); experiment: Luciferase reporter assay: suppression of the skatole response of OR8H1 expressed in HEK293 cells; conditions: test substance 100 μM mixed with 300 μM skatole, HEK293 cells expressing OR8H1; for inhibition at 100 µM: 4 h, read-out: Inhibition rate 8H1
# T4 construct: expressed in transfected cells; host or cells: HEK293
# T4 sequence (Q8NGG4 1-311): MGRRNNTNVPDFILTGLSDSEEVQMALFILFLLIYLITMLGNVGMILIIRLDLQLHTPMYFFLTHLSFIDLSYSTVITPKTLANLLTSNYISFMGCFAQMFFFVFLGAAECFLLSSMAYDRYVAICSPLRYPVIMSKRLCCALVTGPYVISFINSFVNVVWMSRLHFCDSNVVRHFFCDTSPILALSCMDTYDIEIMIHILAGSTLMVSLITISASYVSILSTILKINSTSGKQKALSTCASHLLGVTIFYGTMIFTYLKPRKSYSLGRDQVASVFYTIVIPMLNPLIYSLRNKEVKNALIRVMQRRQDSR
# Experimental: as §1, §2, §3, §4, §5
Inhibition rate 2W1 (OR2W1),Inhibition rate 5K1 (OR5K1),Inhibition rate 5P3 (OR5P3),Inhibition rate 8H1 (OR8H1),inhibition at 100 µM (OR2W1) [%],inhibition at 100 µM (OR5K1) [%],inhibition at 100 µM (OR8H1) [%],Compound
A (A >80%),B (B >50%),A (A >80%),A (A >80%),–,–,–,"CCOC(=O)OC1CCCCC1C(C)(C)C (stereo not drawn) [Flormat, Ethyl 2-tert-butyl cyclohexyl carbonate]"
–,–,B (B >50%),–,> 80,50 to 80,> 80,"C=CCCC(=O)C1=CCCC(C)(C)C1 [Dinascone, 1-(5,5-Dimethyl-cyclohexen-1-yl)-4-penten-1-one]"
–,–,–,–,20 to 50,20 to 50,20 to 50,"CC(=O)OCCC(C)CCC=C(C)C (stereo not drawn) [citronellyl acetate, 3,7-Dimethyl-6-octen-1-yl acetate]"
–,–,C (C >20%),–,20 to 50,20 to 50,20 to 50,"CC=CC(=O)C1C(C)C=CCC1(C)C (stereo not drawn) [δ-damascones, 1-(2,6,6-Trimethyl-3-cyclohexenyl)-2-buten-1-one]"
–,–,A (A >80%),–,50 to 80,> 80,50 to 80,"CC1=CCC(C=CC(C)C(C)O)C1(C)C (stereo not drawn) [Ebanol, 3-Methyl-5-(2,2,3-trimethyl-3-cyclopenten-1-yl)-4-penten-2-ol]"
C (C >20%),–,C (C >20%),C (C >20%),–,–,–,4(3)-(4-Methyl-3-pentenyl)-3-cyclohexenylmethyl acetate [myraldyl acetate]
–,–,C (C >20%),–,20 to 50,20 to 50,< 20,"CC(C)=CCCC(C)CC=O (stereo not drawn) [citronellal, 3,7-Dimethyl-6-octenal]"
–,–,C (C >20%),–,50 to 80,< 20,20 to 50,"CC/C=C\CC1=C(C)CCC1=O [cis-jasmone, (Z)-2-(2-Pentenyl)-3-methyl-2-cyclopenten-1-one]"
–,–,C (C >20%),–,20 to 50,< 20,20 to 50,"CC1C/C=C/CCCCCCCCCC(=O)C1 (stereo not drawn) [Muscenone delta, (5E)-3-methylcyclopentadec-5-en-1-one]"
–,–,A (A >80%),–,20 to 50,> 80,20 to 50,"Cc1ccc(C(C)C)c(O)c1 [thymol, 5-Methyl-2-(1-methylethyl)-phenol]"
–,–,B (B >50%),–,20 to 50,50 to 80,> 80,"CC(C)CCCC(C)CCO (stereo not drawn) [tetrahydrogenol, 3,7-Dimethyl-1-octanol]"
–,–,B (B >50%),–,> 80,50 to 80,> 80,"CCC(O)COC1CCCCC1C(C)(C)C (stereo not drawn) [Ambercore, 1-(2-tert-Butylcyclohexyloxy)-2-butanol]"
B (B >50%),C (C >20%),B (B >50%),–,–,–,–,"CC/C=C\CCOC(=O)c1ccccc1O [cis-3-hexynlyl salicylate, 3(Z)-Hexenyl 2-hydroxy benzoate]"
B (B >50%),–,C (C >20%),–,–,–,–,"CCCCCCOC(=O)c1ccccc1O [hexyl salicylate, n-Hexyl-o-hydroxy benzoate]"
C (C >20%),C (C >20%),–,C (C >20%),–,–,–,C=CCOC(=O)CCC1CCCCC1 [Allyl cyclohexylpropionate]
–,–,–,–,> 80,< 20,20 to 50,"CC(C)=CCCC1=CCC(C=O)CC1 (stereo not drawn) [myrac aldehyde, 4-(4-Methyl-3-penten-1-yl)-3-cyclohexene-1-carboxaldehyde]"
–,–,–,–,50 to 80,< 20,20 to 50,"C=CC(C)=CCC(C)(C)C(=NO)C(C)C [Labienoxime, 2,4,4,7-Tetramethyl-6,8-nonadiene-3-one oxime]"
–,–,–,–,20 to 50,< 20,50 to 80,"CC(C)Cc1ccc(CC(C)C=O)cc1 (stereo not drawn) [suzaral, α-Methyl-4-(2-methylpropyl)-benzenepropanal]"
–,C (C >20%),C (C >20%),B (B >50%),–,–,–,"Hexahydro-4,7-methanoinden-5(6)-yl acetate [tricyclodecenyl acetate]"
–,C (C >20%),C (C >20%),C (C >20%),–,–,–,"2,6-Dimethyl-2-octanol/3,7-Dimethyl-3-octanol [tetrahydromugol]"
–,C (C >20%),C (C >20%),B (B >50%),–,–,–,"CC(=O)OC(C)(C)Cc1ccccc1 [dimethylbenzylcarbinyl acetate, α,α-Dimethyl phenylethyl acetate]"
–,–,–,–,> 80,50 to 80,< 20,"CC(C)(C)c1ccc(CCC=O)cc1 [bourgeonal, 3-(4-tert-butylphenyl)propionaldehyde]"

Compound,Inhibition rate 2W1 (OR2W1),Inhibition rate 5K1 (OR5K1),Inhibition rate 5P3 (OR5P3),Inhibition rate 8H1 (OR8H1),inhibition at 100 µM (OR2W1) [%],inhibition at 100 µM (OR5K1) [%],inhibition at 100 µM (OR8H1) [%]
"CC(=O)C=CC1=C(C)CCCC1(C)C [β-ionone, 4-(2,6,6-Trimethyi-1-cyclohexen-1-yl)-3-buten-2-one]",C (C >20%),B (B >50%),–,A (A >80%),–,–,–
"CCOC(=O)C1OC1(C)c1ccccc1 (stereo not drawn) [Ethyl-2,3-epoxy-3-methyl-3-phenyl propionate]",–,C (C >20%),C (C >20%),B (B >50%),–,–,–
"CC1=CC(C)C(C=O)CC1 (stereo not drawn) [Triplal, Dimethyl-3-cyclohexene-1-carboxaldehyde]",C (C >20%),–,C (C >20%),C (C >20%),–,–,–
"C=C(C)C1CC=C(C=O)CC1 (stereo not drawn) [perillaldehyde, 4-(1-Methylethenyl)-1-cyclohexene-1-carboxyaldehyde]",–,–,–,–,< 20,20 to 50,50 to 80
